Test results published in ChEMBL document CHEMBL1909046, “DrugMatrix in vitro pharmacology data”.

Columns and labels:
[1] = molecular target: Sodium-dependent noradrenaline transporter (Homo sapiens, UniProt P23975); assay: DRUGMATRIX: Norepinephrine Transporter radioligand binding (ligand: [125I] RTI-55); format: cell membranes, MDCK, Membrane; conditions: mdck; Not Active = under 50% inhibition at 10 µM
Substance-P receptor = Substance-P receptor (Homo sapiens, UniProt P25103); format: cell membranes, CHO, Membrane; conditions: cho; further: in other assays of this panel Not Active means under 50% inhibition at 10 µM
[2] = molecular target: T1, Cholecystokinin receptor type A (Homo sapiens, UniProt P32238); format: cell membranes, Membrane; conditions: 1321-n1; further: in other assays of this panel Not Active means under 50% inhibition at 10 µM
T1 sequence (P32238 whole entry): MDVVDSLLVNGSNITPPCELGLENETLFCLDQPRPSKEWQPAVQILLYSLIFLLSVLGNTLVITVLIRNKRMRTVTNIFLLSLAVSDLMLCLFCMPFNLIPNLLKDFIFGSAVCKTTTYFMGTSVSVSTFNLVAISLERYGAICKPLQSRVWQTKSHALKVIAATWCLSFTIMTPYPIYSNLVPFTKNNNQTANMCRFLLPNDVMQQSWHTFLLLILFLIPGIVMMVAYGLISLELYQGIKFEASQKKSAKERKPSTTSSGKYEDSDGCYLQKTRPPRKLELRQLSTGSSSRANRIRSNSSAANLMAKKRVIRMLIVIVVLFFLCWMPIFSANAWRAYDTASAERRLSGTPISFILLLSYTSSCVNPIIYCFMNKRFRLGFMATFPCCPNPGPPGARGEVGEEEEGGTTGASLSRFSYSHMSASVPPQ

[3] = DRUGMATRIX: Platelet-Derived Growth Factor (PDGF) radioligand binding (ligand: [125I] PDGF); format: cell-based; conditions: nih3t3; Not Active = under 50% inhibition at 10 µM
[4] = molecular target: Tyrosine-protein kinase Lck (Homo sapiens, UniProt P06239); assay: DRUGMATRIX: Protein Tyrosine Kinase, LCK enzyme inhibition (substrate: Poly(Glu:Tyr)); format: cell-based, Insect cells; conditions: Not Active = under 50% inhibition at 10 µM
[5] = molecular target: T2, Receptor-type tyrosine-protein phosphatase C (Homo sapiens, UniProt P08575); set-up: species or system Escherichia coli;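 further: inhibition of CD45 enzyme activity measured using DiFMUP as substrate; in other assays of this panel Not Active means under 50% inhibition at 10 µM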
T2 sequence (P08575 whole entry): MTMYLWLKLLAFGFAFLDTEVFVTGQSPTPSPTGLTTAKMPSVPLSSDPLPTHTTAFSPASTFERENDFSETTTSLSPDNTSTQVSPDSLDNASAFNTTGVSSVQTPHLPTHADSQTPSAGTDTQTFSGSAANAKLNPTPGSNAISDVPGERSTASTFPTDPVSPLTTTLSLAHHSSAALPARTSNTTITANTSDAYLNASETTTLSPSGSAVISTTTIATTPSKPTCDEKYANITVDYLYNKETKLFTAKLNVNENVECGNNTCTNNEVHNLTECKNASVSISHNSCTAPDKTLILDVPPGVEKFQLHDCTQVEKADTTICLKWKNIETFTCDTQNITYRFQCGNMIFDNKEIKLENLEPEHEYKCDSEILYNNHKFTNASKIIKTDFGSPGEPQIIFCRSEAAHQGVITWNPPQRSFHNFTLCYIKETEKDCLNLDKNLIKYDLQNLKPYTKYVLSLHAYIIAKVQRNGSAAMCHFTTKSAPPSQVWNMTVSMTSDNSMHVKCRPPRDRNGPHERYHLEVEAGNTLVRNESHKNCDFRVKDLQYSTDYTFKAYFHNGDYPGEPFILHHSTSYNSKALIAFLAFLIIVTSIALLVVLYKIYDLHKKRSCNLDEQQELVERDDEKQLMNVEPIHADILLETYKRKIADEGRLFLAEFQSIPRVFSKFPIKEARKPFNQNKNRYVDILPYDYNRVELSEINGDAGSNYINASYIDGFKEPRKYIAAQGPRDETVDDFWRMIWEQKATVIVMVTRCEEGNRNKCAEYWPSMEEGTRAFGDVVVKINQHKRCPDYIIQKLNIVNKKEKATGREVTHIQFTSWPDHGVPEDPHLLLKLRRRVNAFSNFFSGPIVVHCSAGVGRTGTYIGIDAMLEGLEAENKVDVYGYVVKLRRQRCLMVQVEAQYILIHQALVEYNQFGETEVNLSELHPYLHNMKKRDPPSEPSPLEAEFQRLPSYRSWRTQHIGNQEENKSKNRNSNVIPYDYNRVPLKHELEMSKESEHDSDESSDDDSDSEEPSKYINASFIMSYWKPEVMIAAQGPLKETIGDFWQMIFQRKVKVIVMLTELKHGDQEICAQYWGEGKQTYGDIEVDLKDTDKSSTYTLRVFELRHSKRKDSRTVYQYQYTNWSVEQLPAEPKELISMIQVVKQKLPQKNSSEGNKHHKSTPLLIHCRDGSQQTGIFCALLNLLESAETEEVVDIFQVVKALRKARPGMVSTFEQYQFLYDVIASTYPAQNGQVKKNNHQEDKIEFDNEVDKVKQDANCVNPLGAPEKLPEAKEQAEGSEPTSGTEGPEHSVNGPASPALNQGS

Estrogen receptor beta = Estrogen receptor beta (Homo sapiens, UniProt Q92731); conditions: sf9; further: in other assays of this panel Not Active means under 50% inhibition at 10 µM
Glucocorticoid receptor = molecular target: T3, Glucocorticoid receptor (Homo sapiens, UniProt P04150); conditions: hela s3; further: in other assays of this panel Not Active means under 50% inhibition at 10 µM
T3 sequence (P04150 whole entry): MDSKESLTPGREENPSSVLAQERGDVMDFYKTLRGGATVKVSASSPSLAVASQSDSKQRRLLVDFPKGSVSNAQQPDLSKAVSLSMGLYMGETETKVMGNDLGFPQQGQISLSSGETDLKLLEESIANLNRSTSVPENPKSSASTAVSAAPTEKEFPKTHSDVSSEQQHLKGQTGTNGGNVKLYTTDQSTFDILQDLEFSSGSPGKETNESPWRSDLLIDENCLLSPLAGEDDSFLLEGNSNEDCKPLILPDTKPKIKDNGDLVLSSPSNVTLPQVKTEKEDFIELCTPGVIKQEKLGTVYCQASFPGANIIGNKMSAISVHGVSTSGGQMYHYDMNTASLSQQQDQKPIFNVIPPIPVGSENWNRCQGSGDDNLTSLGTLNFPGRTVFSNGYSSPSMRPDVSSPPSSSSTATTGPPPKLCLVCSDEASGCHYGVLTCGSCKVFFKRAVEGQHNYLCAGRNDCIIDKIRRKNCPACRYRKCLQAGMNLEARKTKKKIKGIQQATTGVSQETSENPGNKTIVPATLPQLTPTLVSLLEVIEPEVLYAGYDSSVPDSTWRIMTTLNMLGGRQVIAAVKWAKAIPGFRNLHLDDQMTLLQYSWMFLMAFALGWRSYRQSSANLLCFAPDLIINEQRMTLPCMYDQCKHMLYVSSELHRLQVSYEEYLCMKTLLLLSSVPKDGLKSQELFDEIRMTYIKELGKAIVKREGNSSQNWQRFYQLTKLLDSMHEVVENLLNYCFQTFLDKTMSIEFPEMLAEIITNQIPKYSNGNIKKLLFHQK

Tyrosine-protein kinase Lck, sequence (P06239 whole entry): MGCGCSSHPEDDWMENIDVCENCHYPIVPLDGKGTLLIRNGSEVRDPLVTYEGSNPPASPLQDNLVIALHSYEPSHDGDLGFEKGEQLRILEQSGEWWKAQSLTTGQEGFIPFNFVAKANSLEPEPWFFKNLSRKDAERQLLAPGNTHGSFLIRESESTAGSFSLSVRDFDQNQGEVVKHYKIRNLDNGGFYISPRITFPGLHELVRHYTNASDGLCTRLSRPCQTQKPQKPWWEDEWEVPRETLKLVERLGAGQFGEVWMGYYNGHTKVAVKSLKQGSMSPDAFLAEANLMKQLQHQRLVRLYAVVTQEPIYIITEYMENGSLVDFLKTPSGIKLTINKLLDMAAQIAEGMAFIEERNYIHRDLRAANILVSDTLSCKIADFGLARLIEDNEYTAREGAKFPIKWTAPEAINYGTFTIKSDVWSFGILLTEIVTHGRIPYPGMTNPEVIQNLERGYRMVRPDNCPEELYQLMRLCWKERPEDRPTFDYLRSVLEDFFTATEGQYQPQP
Estrogen receptor beta, sequence (Q92731 whole entry): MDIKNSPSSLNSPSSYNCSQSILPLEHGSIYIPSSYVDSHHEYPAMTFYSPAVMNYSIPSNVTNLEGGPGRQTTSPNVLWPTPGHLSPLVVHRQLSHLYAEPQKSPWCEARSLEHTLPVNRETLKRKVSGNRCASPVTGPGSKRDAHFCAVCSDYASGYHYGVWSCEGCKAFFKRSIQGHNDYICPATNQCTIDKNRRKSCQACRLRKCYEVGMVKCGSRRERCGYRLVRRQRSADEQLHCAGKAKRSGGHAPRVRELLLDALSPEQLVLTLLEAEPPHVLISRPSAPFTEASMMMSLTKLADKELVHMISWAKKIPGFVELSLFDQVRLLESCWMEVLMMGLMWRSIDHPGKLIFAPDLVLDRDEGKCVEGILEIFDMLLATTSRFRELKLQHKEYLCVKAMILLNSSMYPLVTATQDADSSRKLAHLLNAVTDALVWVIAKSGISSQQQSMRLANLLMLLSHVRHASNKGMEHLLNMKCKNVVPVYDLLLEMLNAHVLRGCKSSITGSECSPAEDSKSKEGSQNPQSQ
Sodium-dependent noradrenaline transporter, sequence (P23975 whole entry): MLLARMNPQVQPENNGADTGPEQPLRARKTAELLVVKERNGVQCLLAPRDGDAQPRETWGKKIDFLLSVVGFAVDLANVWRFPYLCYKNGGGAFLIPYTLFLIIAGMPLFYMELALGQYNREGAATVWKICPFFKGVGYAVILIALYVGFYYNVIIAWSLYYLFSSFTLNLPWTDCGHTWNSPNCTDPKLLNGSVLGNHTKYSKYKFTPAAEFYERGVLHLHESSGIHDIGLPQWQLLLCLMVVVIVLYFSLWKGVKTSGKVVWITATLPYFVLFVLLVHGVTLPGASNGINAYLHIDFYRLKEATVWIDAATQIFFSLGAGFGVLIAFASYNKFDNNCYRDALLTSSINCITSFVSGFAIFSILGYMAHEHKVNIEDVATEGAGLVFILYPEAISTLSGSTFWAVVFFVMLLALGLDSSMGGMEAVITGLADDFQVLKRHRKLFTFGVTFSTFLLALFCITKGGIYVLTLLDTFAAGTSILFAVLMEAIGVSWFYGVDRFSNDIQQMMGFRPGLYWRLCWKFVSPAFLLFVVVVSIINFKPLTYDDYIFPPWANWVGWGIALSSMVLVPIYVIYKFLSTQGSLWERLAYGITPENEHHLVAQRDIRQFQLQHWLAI
Substance-P receptor, sequence (P25103 whole entry): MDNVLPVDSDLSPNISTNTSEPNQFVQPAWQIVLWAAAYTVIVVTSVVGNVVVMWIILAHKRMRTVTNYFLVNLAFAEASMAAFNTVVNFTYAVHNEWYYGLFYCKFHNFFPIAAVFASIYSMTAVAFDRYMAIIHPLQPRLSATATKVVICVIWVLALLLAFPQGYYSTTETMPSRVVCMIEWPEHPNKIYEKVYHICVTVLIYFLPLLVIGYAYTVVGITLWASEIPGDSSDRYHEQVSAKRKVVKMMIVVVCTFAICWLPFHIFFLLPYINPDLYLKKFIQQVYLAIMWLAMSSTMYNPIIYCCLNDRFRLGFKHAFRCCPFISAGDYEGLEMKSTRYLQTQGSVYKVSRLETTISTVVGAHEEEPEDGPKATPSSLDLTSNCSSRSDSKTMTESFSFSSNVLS

Compound | IC50 [1] | IC50 (Substance-P receptor) | IC50 [2] | IC50 [3] | Ki [3] | IC50 ([4]; insect cells) | IC50 [5] | IC50 (Estrogen receptor beta) | IC50 (Glucocorticoid receptor) | Ki [1] | Ki (Substance-P receptor) | Ki [2] | Ki ([4]; insect cells) | Ki [5] | Ki (Estrogen receptor beta) | Ki (Glucocorticoid receptor) | IC50 ([4]; read-out: IC50) [nM]
COc1cc2nc(N3CCN(C(=O)c4ccco4)CC3)nc(N)c2cc1OC [PRAZOSIN] | Not Active | Not Active | Not Active | Not Active | Not Active | Not Active | Not Active | Not Active | Not Active | – | – | – | – | – | – | – | –
Cc1c(OCC(F)(F)F)ccnc1C[S+]([O-])c1nc2ccccc2[nH]1 (stereo not drawn) [LANSOPRAZOLE] | Not Active | Not Active | Not Active | Not Active | Not Active | Not Active | Not Active | Not Active | Not Active | – | – | – | – | – | – | – | –
CN1[C@@H]2CC[C@H]1C[C@@H](OC(=O)C(CO)c1ccccc1)C2 (stereo partly drawn) [ATROPINE] | Not Active | Not Active | Not Active | Not Active | Not Active | Not Active | Not Active | Not Active | Not Active | – | – | – | – | – | – | – | –
COc1ccc(C2C(=O)c3ccccc3C2=O)cc1 [ANISINDIONE] | Not Active | Not Active | Not Active | Not Active | Not Active | Not Active | Not Active | Not Active | Not Active | – | – | – | – | – | – | – | –
CC(C(=O)O)c1ccc2oc(-c3ccc(Cl)cc3)nc2c1 (stereo not drawn) [BENOXAPROFEN] | Not Active | Not Active | Not Active | Not Active | Not Active | Not Active | Not Active | Not Active | Not Active | – | – | – | – | – | – | – | –
Cc1cc2c(OCC(CNC(C)(C)C)OC(=O)c3ccccc3)cccc2[nH]1 (stereo not drawn) [BOPINDOLOL] | Not Active | Not Active | Not Active | Not Active | Not Active | Not Active | Not Active | Not Active | Not Active | – | – | – | – | – | – | – | –
Nc1ccn([C@@H]2O[C@H](CO)[C@@H](O)C2(F)F)c(=O)n1 [GEMCITABINE] | Not Active | Not Active | Not Active | Not Active | Not Active | Not Active | Not Active | Not Active | Not Active | – | – | – | – | – | – | – | –
COc1ccc2[nH]cc(CCNC(C)=O)c2c1 [MELATONIN] | Not Active | Not Active | Not Active | Not Active | Not Active | Not Active | Not Active | Not Active | Not Active | – | – | – | – | – | – | – | –
GADOPENTETATE DIMEGLUMINE | Not Active | Not Active | Not Active | Not Active | Not Active | Not Active | Not Active | Not Active | Not Active | Not Active | Not Active | Not Active | Not Active | Not Active | Not Active | Not Active | –
C[n+]1ccc(-c2cc[n+](C)cc2)cc1.[Cl-].[Cl-] [PARAQUAT DICHLORIDE] | Not Active | Not Active | Not Active | Not Active | Not Active | Not Active | Not Active | Not Active | Not Active | – | – | – | – | – | – | – | –
C[C@@H]1CC[C@@]2(OC1)O[C@H]1[C@@H](O)[C@H]3[C@@H]4CC[C@H]5C[C@@H](O[C@@H]6O[C@H](CO)[C@H](O[C@@H]7O[C@H](CO)C(O)[C@H](O[C@@H]8OC[C@@H](O)[C@H](O)[C@H]8O)[C@H]7O[C@@H]7O[C@H](CO)[C@H](O)[C@H](O[C@@H]8O[C@H](CO)[C@@H](O)[C@H](O)[C@H]8O)[C@H]7O)[C@H](O)[C@H]6O)[C@H](O)C[C@]5(C)[C@H]4CC[C@]3(C)[C@H]1[C@@H]2C (stereo partly drawn) [DIGITONIN] | Not Active | Not Active | Not Active | Not Active | Not Active | Not Active | Not Active | Not Active | Not Active | – | – | – | – | – | – | – | –
Oc1c(Cl)cc(Cl)c(Cl)c1Cc1c(O)c(Cl)cc(Cl)c1Cl [HEXACHLOROPHENE] | Not Active | Not Active | Not Active | Not Active | Not Active | – | Not Active | Not Active | Not Active | – | – | – | – | – | – | – | 2430
O=C1CN=C(c2ccccc2Cl)c2cc([N+](=O)[O-])ccc2N1 [CLONAZEPAM] | Not Active | Not Active | Not Active | Not Active | Not Active | Not Active | Not Active | Not Active | Not Active | – | – | – | – | – | – | – | –
CCn1cc(C(=O)O)c(=O)c2cnc(N3CCCC3)nc21 [PIROMIDIC ACID] | Not Active | Not Active | Not Active | Not Active | Not Active | Not Active | Not Active | Not Active | Not Active | – | – | – | – | – | – | – | –
